Measurements taken from US6734301B2, “2,3,4,5-Tetrahydro-1H-[1,4]diazepino[1,7-a]indole compounds” (Pharmacia & Upjohn Company, priority 2000, dated 2004).
Where a name gives a salt, the structure may show the parent alone.

| melting point [°C] | SMILES |
| --- | --- |
| 59 to 60 | CN1CCc2cc3ccccc3n2CC1 |
| 77 to 80 | NCCc1c2n(c3ccccc13)CCNCC2 |
| 157 to 160 | O=C(Nc1ccccc1)C(=O)c1c2n(c3ccccc13)CCNCC2 |
| 161 to 164 | N#Cc1c2n(c3ccccc13)CCNCC2 |
| > 250 | Clc1c2n(c3ccccc13)CCNCC2 (as salt: hydrochloride) |
| 129 to 132 | CC(C)(C)OC(=O)N1CCc2cc3ccccc3n2CC1 [Example 51, tert-butyl 1,2,4,5-tetrahydro-3H-[1,4]diazepino[1,7-a]indole-3-carboxylate] |
| 225 to 226 | O=[N+]([O-])/C=C/c1c2n(c3ccccc13)CCNCC2 [Example 52, 11-[(E)-2-nitroethenyl]-2,3,4,5-tetrahydro-1H-[1,4]diazepino[1,7-a]indole] |

More lines, now with the values behind:

| SMILES | melting point [°C] |
| --- | --- |
| O=Cc1c2n(c3cc(Br)ccc13)CCNCC2 | 186 to 188 |
| CCN1CCc2cc3ccccc3n2CC1 | 44 to 46 |
| COc1ccc(NC(=O)C(=O)c2c3n(c4ccccc24)CCNCC3)cc1 | 177 to 180 |
| COc1ccc(NC(=O)C(=O)c2c3n(c4ccccc24)CCNCC3)cc1Cl | 221 to 223 |
| O=Cc1c2n(c3ccccc13)CCNCC2 | 167 to 168 |
| NC(=O)C(=O)c1c2n(c3ccccc13)CCNCC2 | 214 to 215 |
| O=C(c1c2n(c3ccccc13)CCNCC2)C(F)(F)F | 131 to 133 |
| O=C(Nc1ccc(F)cc1F)C(=O)c1c2n(c3ccccc13)CCNCC2 | 184.5 to 185.5 |
| CCCN1CCc2cc3ccccc3n2CC1 (as salt: hydrochloride) | 257 to 259 |
| Brc1ccc2cc3n(c2c1)CCNCC3 (as salt: hydrochloride) | 292 to 295 |
